Laboratory results published in patent US20130252944A1, “NOVEL FUSED PYRAZOLE DERIVATIVES AND THEIR USE AS ALLOSTERIC MODULATORS OF METABOTROPIC GLUTAMATE RECEPTORS” (priority 2010, published 2013).
pEC50: −log10 of the molar value.

target: T1, recombinant human mGluR4a receptors (Homo sapiens, UniProt Q14833); assay: Fluorescent cell based Ca2+ mobilization assay (FLIPR) on HEK-293 cells expressing human mGluR4; settings: positive allosteric modulation in presence of EC25 glutamate; HEK-293 hmGluR4; mean of at least three independent experiments in duplicate; read-out: Ca^2+ Flux (mean EC50)
T1 construct: expressed in transfected cells
Excerpt: mGluR4 Assay on HEK-Expressing Human mGluR4
The compounds of the present invention are positive allosteric modulators of mGluR4 receptor. Their activity was examined on recombinant human mGluR4a receptors by detecting changes in intracellular Ca^2+concentration, using the fluorescent Ca^2+-sensitive dye Fluo4-(AM) and a Fluorometric Imaging Plate Reader (FLIPR, Molecular Devices, Sunnyvale, Calif.).
The cDNA encoding the human metabotropic glutamate receptor (hmGluR4), (accession number NM_000841.1, NCBI Nucleotide database browser), was subcloned into an expression vector containing also the hygromycin resistance gene. In parallel, the cDNA encoding a G protein allowing redirection of the activation signal to intracellular calcium flux was subcloned into a different expression vector containing also the puromycin resistance gene. Transfection of both these vectors into HEK293 cells with PolyFect reagent (Qiagen) according to supplier's protocol, and hygromycin and puromycin treatment allowed selection of antibiotic resistant cells which had integrated stably one or more copies of the plasmids. Positive cellular clones expressing hmGluR4 were identified in a functional assay measuring changes in calcium fluxes in response to glutamate or selective known mGluR4 orthosteric agonists and antagonists.
HEK-293 cells expressing hmGluR4 were maintained in media containing DMEM, dialyzed Fetal Calf Serum (10%), Glutamax™ (2 mM), Penicillin (100 units/mL), Streptomycin (100 μg/mL), Geneticin (100 μg/mL) and Hygromycin-B (40 μg/mL) and puromycin (1 μg/mL) at 37° C./5% CO2.
Human mGluR4 HEK-293 cells were plated out 24 hours prior to FLIPR^384 assay in black-walled, clear-bottomed, poly-L-ornithine-coated 384-well plates at a density of 25,000 cells/well in a glutamine/glutamate free DMEM medium containing foetal bovine serum (10%), penicillin (100 units/mL) and streptomycin (100 μg/mL) at 37° C./5% CO2.
On the day of the assay, the medium was aspirated and the cells were loaded with a 3 μM solution of Fluo4-AM (LuBioScience, Lucerne, Switzerland) in 0.03% pluronic acid. After 1 hour at 37° C./5% CO2, the non incorporated dye was removed by washing cell plate with the assay buffer and the cells were left in the dark at room temperature for […] before testing. All assays were performed in a pH=7.4 buffered-solution containing 20 mM HEPES, 143 mM NaCl, 6 mM KCl, 1 mM MgSO4, 1 mM CaCl2, 0.125 mM sulfapyrazone and 0.1% glucose.
After 10 s of basal fluorescence recording, various concentrations of the compounds of the invention were added to the cells. Changes in fluorescence levels were first monitored for 180 s in order to detect any agonist activity of the compounds. Then the cells were stimulated by an EC25 glutamate concentration for an additional 110 s in order to measure enhancing activities of the compounds of the invention. EC25 glutamate concentration is the concentration giving 25% of the maximal glutamate response.
The concentration-response curves of representative compounds of the present invention were generated using the Prism GraphPad software (Graph Pad Inc, San Diego, USA). The curves were fitted to a four-parameter logistic equation:
(Y=Bottom+(Top−Bottom)/(1+10̂((LogEC50−X)*Hill Slope)
allowing the determination of EC50 values.
The Table 3 below represents the mean EC50 obtained from at least three independent experiments of selected molecules performed in duplicate.

T1 sequence (Q14833 33-912): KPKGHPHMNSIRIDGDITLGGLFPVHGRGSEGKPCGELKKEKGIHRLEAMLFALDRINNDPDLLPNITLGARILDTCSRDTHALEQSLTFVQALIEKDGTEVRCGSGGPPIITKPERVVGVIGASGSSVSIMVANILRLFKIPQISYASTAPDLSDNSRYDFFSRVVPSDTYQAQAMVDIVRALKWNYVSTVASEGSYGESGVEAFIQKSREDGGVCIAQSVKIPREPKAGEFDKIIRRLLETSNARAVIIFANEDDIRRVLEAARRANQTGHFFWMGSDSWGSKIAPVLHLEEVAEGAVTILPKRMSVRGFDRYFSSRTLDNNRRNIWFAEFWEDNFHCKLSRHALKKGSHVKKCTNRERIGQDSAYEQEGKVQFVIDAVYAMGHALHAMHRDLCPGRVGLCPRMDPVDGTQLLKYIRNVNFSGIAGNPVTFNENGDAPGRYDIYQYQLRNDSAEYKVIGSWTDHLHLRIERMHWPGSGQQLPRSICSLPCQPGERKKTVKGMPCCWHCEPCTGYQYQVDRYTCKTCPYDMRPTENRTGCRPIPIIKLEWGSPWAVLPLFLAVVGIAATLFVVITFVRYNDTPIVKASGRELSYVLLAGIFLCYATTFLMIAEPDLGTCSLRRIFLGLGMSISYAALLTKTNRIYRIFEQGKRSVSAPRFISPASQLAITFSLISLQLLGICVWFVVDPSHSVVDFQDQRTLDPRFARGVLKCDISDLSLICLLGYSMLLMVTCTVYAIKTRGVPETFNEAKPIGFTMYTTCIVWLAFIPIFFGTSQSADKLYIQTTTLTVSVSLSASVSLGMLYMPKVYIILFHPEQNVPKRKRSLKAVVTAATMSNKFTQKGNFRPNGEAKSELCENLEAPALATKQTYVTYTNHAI

| pEC50 | Compound |
| --- | --- |
| > 7.00 | Cc1ccnc(Nc2nc3c(s2)COC(c2ccccn2)c2[nH]ncc2-3)n1 (stereo not drawn) [Compound 1-31, (4-Methyl-pyrimidin-2-yl)-(6-pyridin-2-yl-6,7-dihydro-4H-5-oxa-3-thia-1,7,8-triaza-cyclopenta[e]azulen-2-yl)-amine] |
| 6.00 to 7.00 | (6-Isopropyl-6,7-dihydro-4H-5-oxa-3-thia-1,7,8-triaza-cyclopenta[e]azulen-2-yl)-(5-methyl-[1,2,4]thiadiazol-3-yl)-amine [Compound 1-25] |

| Compound | pEC50 |
| --- | --- |
| Dimethyl-carbamic acid 2-(4-methyl-pyrimidin-2-ylamino)-4,5,6,6a,7,8-hexahydro-3-thia-1,7,8-triaza-cyclopenta[e]azulen-5-yl ester [Compound 1-6] | 6.00 to 7.00 |
